Here are results for ten molecules from patent publication US5198358A, “Microorganism for producing C-31 desmethyl FR-900520 cyclic hemiketal immunosuppressant agent” (Merck & Co., Inc., priority 1991, dated 1993).

For data set [1], the target named is T1, 31-O-desmethylimmunomycin O-methyltransferase (DIMT) (Streptomyces hygroscopicus, UniProt Q9KID5).
T1 sequence (Q9KID5 1-260): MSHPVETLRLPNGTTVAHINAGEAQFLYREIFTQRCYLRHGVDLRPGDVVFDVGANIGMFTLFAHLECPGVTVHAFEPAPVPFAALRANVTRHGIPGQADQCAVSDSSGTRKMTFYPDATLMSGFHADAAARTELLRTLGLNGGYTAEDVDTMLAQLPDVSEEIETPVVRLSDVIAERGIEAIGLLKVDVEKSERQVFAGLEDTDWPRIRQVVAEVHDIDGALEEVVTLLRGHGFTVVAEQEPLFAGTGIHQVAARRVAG
The data set is described as follows: S-adenosyl-L-methionine: 31-O-desmethylimmunomycin O-methyltransferase (DIMT) assay. The protocol: The assay was carried out in 1 ml. mixture containing 0.025 mM 31-desmethylimmunomycin, 1 mM MgSO4 and different quantities of the enzyme source in 50 mM phosphate buffer, pH 7.5. Reaction was initiated by the addition of 1 nmole of ^14 C-SAM (S-adenosyl-L-[methyl-^14 C] methionine with the specific activity of 46 mCi/mmole. Incubation of the complete mixture was carried out at 34° C. for 20 minutes and the reaction was terminated by the addition of ethyl acetate. Product of the reaction was extracted with 2 ml of ethyl acetate and 1 ml of the extract was used for TLC and HPLC analysis. For the analysis of the radioactive reaction product (immunomycin), the ethyl acetate extract was spiked with the standard immunomycin and subjected to the TLC with a plate having plastic support. The plastic sheet was developed in chloroform:methanol (9:1) and area showing standard immunomycin under UV-light was cut and the radioactivity in the cut-strip was measured. The amount of the product formed was calculated from the measured radioactivity. For the HPLC analysis of the product of the enzyme reaction, several enzymatic reaction mixtures were pooled and the extract was subjected to the TLC analysis as above. The area on the silica gel plate showing the band having an Rf value identical with the standard immunomycin was scraped and eluted with ethyl acetate. The ethyl acetate extract was washed with water, dried under nitrogen and the residue was subjected to the HPLC analysis on Partisil 5-ODS-3 column with acetonitrile:water:phosphoric acid (65:35:0.1) as the eluting solvent. One milliliter fractions were collected and a portion of each fraction was examined for the radioactivity.
Examination of the optimal temperature, pH and metal requirement of the DIMT activity was carried out on the enzyme preparation obtained from DEAE-Sepharose column. For kinetic analysis, a preparation which had been purified through a second MonoQ column chromatography was utilized.

The test system of data set [2] is Splenic T-cells stimulated with ionomycin + PMA. The data set is described as follows: T-cell proliferation assay (ionomycin plus PMA induced T-cell stimulation). The format is cell-based, mouse. As to conditions: for Inhibition of T-cell activation (result in words): T-cell proliferation assay. The procedure: Cells were pelleted by centrifugation at 1500 rpm for 8 minutes. Contaminating red cells were removed by treating the pellet with ammonium chloride lysing buffer (GIBCO) for 2 minutes at 4° C. Cold medium was added and cells were again centrifuged at 1500 rpm for 8 minutes. T lymphocytes were then isolated by separation of the cell suspension on nylon wool columns as follows: Nylon wool columns were prepared by packing approximately 4 grams of washed and dried nylon wool into 20 ml plastic syringes. The columns were sterilized by autoclaving at 250° F. for 30 minutes. Nylon wool columns were wetted with warm (37° C.) culture medium and rinsed with the same medium. Washed spleen cells resuspended in warm medium were slowly applied to the nylon wool. The columns were then incubated in an upright position at 37° C. for 1 hour. Non-adherent T lymphocytes were eluted from the columns with warm culture medium and the cell suspensions were spun as above.
The cell suspension was immediately distributed into 96 well flat-bottom microculture plates (Costar) at 200 μl/well. […] The proliferation of T lymphocytes was assessed by measurement of tritiated thymidine incorporation. After 44 hours of culturing, the cells were pulse-labelled with 2 μCi/well of tritiated thymidine (NEN, Cambridge, Mass.). After another 4 hours of incubation, cultures were harvested on glass fiber filters using a multiple sample harvester. Radioactivity of filter discs corresponding to individual wells was measured by standard liquid scintillation counting methods (Betacounter). Mean counts per minute of replicate wells were calculated and the results expressed as percent inhibition of tritiated thymidine uptake (proliferation) as follows: [formula]

The conditions of data set [3]: reputed; EPO Publication No. 0184162; cited from earlier work.
Substrate in data set [4]: C[S+](CC[C@H](N)C(=O)[O-])C[C@H]1O[C@@H](n2cnc3c(N)ncnc32)[C@H](O)[C@@H]1O
The data set is described as follows: purified protein, by the assay type. As to conditions: other: SAM as variable substrate, 25 umM 31-O-desmethylimmunomycin as cosubstrate; pH 7.5.

Substrate in data set [5]: [H][C@@]1(/C=C(\C)[C@@]2([H])OC(=O)[C@]3([H])CCCCN3C(=O)C(=O)[C@]3(O)O[C@]([H])([C@@H](OC)C[C@@H](C)C/C(C)=C/[C@@H](CC)C(=O)C[C@H](O)[C@H]2C)[C@@H](OC)C[C@H]3C)CC[C@@H](O)[C@H](O)C1
The data set is described as follows: purified protein, by the assay type. The settings on record: other: 31-O-desmethylimmunomycin as variable substrate, 40 uM SAM; Lineweaver-Burk; pH 7.5.

Where [6] appears, read: Mus musculus, T-cell, HPLC purified samples, evaluated in the same set of experiments, read-out: IC50 (biological activity).

Where “and” joins values, the source holds several entries; their conditions need not be identical. Equal values may be shown once. Entries after “also recorded” stand apart in the source; their conditions may differ. Read-outs that look alike come from different tables or passages of the source.

For `CC[C@@H]1/C=C(\C)C[C@H](C)C[C@H](OC)[C@H]2O[C@@](O)(C(=O)C(=O)N3CCCC[C@H]3C(=O)O[C@H](/C(C)=C/[C@@H]3CC[C@@H](O)[C@H](O)C3)[C@H](C)[C@@H](O)CC1=O)[C@H](C)C[C@@H]2OC` [31-O-desmethylimmunomycin], in data set [1] (31-O-desmethylimmunomycin as variable substrate, 40 uM SAM, Lineweaver-Burk), the “apparent Vmax” value was determined as 45.5 nmol/h/mg.

One may read the IC50 as the concentration at which inhibition is half-maximal. `CC[C@@H]1C=C2COC1(O)C[C@H](O)[C@@H](C)[C@@H](/C(C)=C/[C@@H]1CC[C@@H](O)[C@H](OC)C1)OC(=O)[C@@H]1CCCCN1C(=O)C(=O)[C@]1(O)O[C@H]([C@@H](OC)C[C@@H](C)C2)[C@@H](OC)C[C@H]1C` [Compound II]: the half-inhibitory concentration (IC50) in data set [2] (setting [6]) was approximately 6 nM. In addition, in data set [2], the “Inhibition of T-cell activation (result in words)” value was “positive inhibition of T-cell activation; also recorded: positive results”.

For orientation: inhibition means the relative decrease from the control value, in per cent. Regarding `CC[C@@H]1C=C2COC1(O)C[C@H](O)[C@@H](C)[C@@H](/C(C)=C/[C@@H]1CC[C@@H](O)[C@H](O)C1)OC(=O)[C@@H]1CCCCN1C(=O)C(=O)[C@]1(O)O[C@H]([C@@H](OC)C[C@@H](C)C2)[C@@H](OC)C[C@H]1C` [Compound I], the inhibition at 0.0025 µM in data set [2] (Mus musculus, T-cell, 2.5 nM, tritiated thymidine uptake, harvest at 48 hours, read-out: Percent of Inhibition) worked out at 0%. Further, the inhibition at 0.0049 µM in data set [2] (Mus musculus, T-cell, 4.9 nM, tritiated thymidine uptake, harvest at 48 hours, read-out: Percent of Inhibition) was found to be 0%. For the same molecule, in data set [2] (Mus musculus, T-cell, 9.9 nM, tritiated thymidine uptake, harvest at 48 hours, read-out: Percent of Inhibition), the inhibition at 0.0099 µM stood at 39%. Further, in data set [2] (Mus musculus, T-cell, 19.7 nM, tritiated thymidine uptake, harvest at 48 hours, read-out: Percent of Inhibition), the inhibition at 0.0197 µM turned out to be 65%. In data set [2] (Mus musculus, T-cell, 39.4 nM, tritiated thymidine uptake, harvest at 48 hours, read-out: Percent of Inhibition), the inhibition at 0.0394 µM was determined as 89%. In addition, the inhibition at 0.0788 µM in data set [2] (Mus musculus, T-cell, 78.8 nM, tritiated thymidine uptake, harvest at 48 hours, read-out: Percent of Inhibition) was found to be 95%. Moreover, the inhibition at 0.1576 µM in data set [2] (Mus musculus, T-cell, 157.6 nM, tritiated thymidine uptake, harvest at 48 hours, read-out: Percent of Inhibition) turned out to be 98%. Also, the inhibition at 0.3152 µM in data set [2] (Mus musculus, T-cell, 315.2 nM, tritiated thymidine uptake, harvest at 48 hours, read-out: Percent of Inhibition) amounted to 98%. For the same molecule, the IC50 in data set [2] (setting [6]) is approximately 11 nM; in data set [2] (Mus musculus, T-cell proliferation, Example 4, read-out: IC50) it was 0.0115 µg/mL and 14.5 nM. For the same molecule, the “Inhibition of T-cell activation (result in words)” value in data set [2] is given as “positive inhibition of T-cell activation; also recorded: antagonist activity versus the FK-506 immunosuppressive activity”. The “Effect of IL2 on inhibition of T-cell proliferation” value in data set [2] (addition of 50 units/ml of recombinant IL2 at the initiation of culture) is reported as “reversed”.

In the case of `O=C(O)CN(CCN(CC(=O)O)CC(=O)O)CC(=O)O` [EDTA], the results for the “Inhibition of DIMT activity” value in data set [1] and in data set [1] (crude extract) were “major inhibition” and “completely inhibited”, respectively.

In the case of `C=CC[C@@H]1/C=C(\C)C[C@H](C)C[C@H](OC)[C@H]2O[C@@](O)(C(=O)C(=O)N3CCCC[C@H]3C(=O)O[C@H](/C(C)=C/[C@@H]3CC[C@@H](O)[C@H](OC)C3)[C@H](C)[C@@H](O)CC1=O)[C@H](C)C[C@@H]2OC` [FR900506, reference compound], in data set [2] (Mus musculus, T-cell, 10 ng/ml, standard), the inhibition at 0.01 µg/mL worked out at 99%. Besides, the “Effectiveness relative to cyclosporin” value in data set [3] is 100 times.

On to `CC[C@@H]1/C=C(\C)C[C@H](C)C[C@H](OC)[C@H]2O[C@@](O)(C(=O)C(=O)N3CCCC[C@H]3C(=O)O[C@H](/C(C)=C/[C@@H]3CC[C@@H](O)[C@H](OC)C3)[C@H](C)[C@@H](O)CC1=O)[C@H](C)C[C@@H]2OC` [FR-900520, 17-Ethyl-1,14-dihydroxy-12-[2-(4-hydroxy-3-methoxycyclohexyl)-1-methylvinyl]-23-25-dimethoxy-13,19,21,27-tetramethyl-11,28-dioxa-4-azatricyclo [22.3.1.0^4,9]octacos-18-ene-2,3,10,16-tetraone], for which the half-inhibitory concentration (IC50) in data set [2] (setting [6]) is approximately 1 nM.

As for `Nc1ncnc2c1ncn2[C@@H]1O[C@H](CSCC[C@H](N)C(=O)O)[C@@H](O)[C@H]1O` [S-adenosyl-homocysteine (SAH), S-adenosyl-homocysteine], the “Inhibition of DIMT activity” value in data set [1] is recorded as “major inhibition”.

`N.N.O=S(=O)(O)O` [ammonium sulfate]: the “Inhibition of DIMT activity” value in data set [1] (crude extract) was “inhibited”.

For `Nc1ncnc2c1ncn2[C@@H]1O[C@H](C[C@@H](N)CC[C@H](N)C(=O)O)[C@@H](O)[C@H]1O` [sinefungin], the “Inhibition of DIMT activity” value in data set [1] was “major inhibition”.

B1: 31-O-desmethylimmunomycin O-methyltransferase (DIMT) (Streptomyces hygroscopicus subsp. ascomyceticus) (protein)
chain: MSHPVETLRLPNGTTVAHINAGEAQFLYREIFTQRCYLRHGVDLRPGDVVFDVGANIGMFTLFAHLECPGVTVHAFEPAPVPFAALRANVTRHGIPGQADQCAVSDSSGTRKMTFYPDATLMSGFHADAAARTELLRTLGLNGGYTAEDVDTMLAQLPDVSEEIETPVVRLSDVIAERGIEAIGLLKVDVEKSERQVFAGLEDTDWPRIRQVVAEVHDIDGALEEVVTLLRGHGFTVVAEQEPLFAGTGIHQVAARRVAG
A word on the Km: it is the concentration of substrate that gives half-maximal velocity. What is called Vmax is the rate approached at saturating substrate. For B1, the results for the Km in data set [4] and in data set [5] were 12.5 µM and 11 µM, respectively. Also, the maximum rate (Vmax) in data set [4] was 100 nmol/h/mg.
